The text below walks through data of patent US8846951B2 (AbbVie Inc., priority 2009, dated 2014).

One experiment addresses T1, h-5-HT6 receptor (Homo sapiens, UniProt P50406).
T1 construct: expressed in transfected cells; host or cells: HEK293 cells (membranes)
Briefly: Human 5-HT6 receptor radioligand binding assay (HEK293 membranes, [3H]-LSD). The method, then: (v) Human 5-HT6 Receptor Radioligand Binding Assay
Preparation of Membranes by Ultrasonic Treatment and Differential Centrifugation
Cells from stable clonal cell lines expressing the corresponding receptor (5-HT6) were washed with PBS (without Ca^++, Mg^++) and harvested in PBS with 0.02% EDTA. The cells were collected by centrifugation at 500 g for 10 minutes at 4° C., washed with PBS and centrifuged (500 g, 10 minutes at 4° C.). The pellets were stored at −80° C. until use. For membrane preparation, the thawed cell pellet was resuspended in ice-cold sucrose buffer (0.25 M sucrose, 10 mM HEPES (pH 7.4), 1 mM phenylmethylsulfonyl fluoride (PMSF) in DMSO, 5 μg/ml Pepstatin-A, 3 mM EDTA, 0.025% Bacitracin) and homogenized with a Branson Sonifier W-250 (Settings: Timer 4; Output Control 3; Duty Cycle constant; 2 to 3 cycles). Cell disruption was checked with the aid of a microscope. Remaining unbroken cells were pelleted at 1,000 g for 10 minutes at 4° C. The sucrose buffer supernatant was then centrifuged at 60,000 g for 1 hour at 4° C. (Beckman Ultracentrifuge XL 80). The pellet was resuspended in 30 mL of ice-cold Tris buffer (20 mM TRIS (pH 7.4), 5 μg/mL Pepstatin A, 0.1 mM PMSF, 3 mM EDTA) by pipetting through a 10 mL serological pipette and centrifuged for 1 hour at 4° C. at 60,000 g. A final resuspension was performed in a small volume of ice-cold Tris buffer (see above) by pressing through a serological pipette followed by ultrasonic treatment with a Branson Sonifier W-250 (Settings: Timer 1; Output Control 3; Duty Cycle constant; 1 cycle). Protein concentration was determined (BCA-Kit; Pierce) and aliquots stored at −80° C. or in liquid nitrogen for long-term storage.
Receptor Binding Experiments
All receptor binding experiments were carried out in the corresponding assay buffer in a total volume of 200 μL in the presence of various concentrations of test compound (10^−5 M to 10^−9 M, tenfold serial dilution, duplicate determinations). The assays were terminated by filtration on polyethylenimine (PEI 0.1% or 0.3%) presoaked Packard Unifilter Plates (GF/C or GF/B) with a Tomtec MachIII U 96 well-plate harvester. After the plates had been dried for 2 hours at 55° C. in a drying chamber scintillation cocktail (BetaPlate Scint; PerkinElmer) was added. Radioactivity was measured in a Microbeta Trilux two hours after the addition of the scintillation mixture.
5-HT6 Receptor Binding Assay
HEK293 cells stably expressing the h-5-HT6 receptor (NCBI Reference Sequence XM 001435) were cultured in RPMI1640 medium supplemented with 25 mM HEPES, 10% fetal calf serum and 1-2 mM glutamine. The membrane preparation was performed as described above. […] On the day of the assay, the membranes were thawed, diluted in assay buffer (50 mM Tris-HCl, 5 mM CaCl2, 0.1% ascorbic acid, 10 μM pargyline, pH 7.4) to a concentration of 8 μg protein/assay and homogenized by gentle vortexing. […] Non-specific binding was defined with 1 μM methiothepin. The binding reaction was carried out for 3.5 hours at room temperature. During the incubation, the plates were shaken on a plate shaker at 100 rpm and terminated by filtration on Packard Unifilter GF/C (0.1% PEI) plates, followed by 2 wash cycles with ice-cold 50 mM Tris-HCl, 5 mM CaCl2.
Data derived from liquid scintillation counting were analyzed by iterative non-linear regression analysis with the use of the Statistical Analysis System (SAS): a program similar to “LIGAND” as described by Munson and Rodbard (Anal. Biochem. 1980, 107, 220-239). Fitting was performed according to formulae described by Feldman (Anal. Biochem. 1972, 48, 317-338). IC50 and Ki values were expressed as geometrical mean.

The target in experiment [1] is T2, 5HT2C receptors (Homo sapiens, UniProt P28335).
T2 sequence (P28335 33-458): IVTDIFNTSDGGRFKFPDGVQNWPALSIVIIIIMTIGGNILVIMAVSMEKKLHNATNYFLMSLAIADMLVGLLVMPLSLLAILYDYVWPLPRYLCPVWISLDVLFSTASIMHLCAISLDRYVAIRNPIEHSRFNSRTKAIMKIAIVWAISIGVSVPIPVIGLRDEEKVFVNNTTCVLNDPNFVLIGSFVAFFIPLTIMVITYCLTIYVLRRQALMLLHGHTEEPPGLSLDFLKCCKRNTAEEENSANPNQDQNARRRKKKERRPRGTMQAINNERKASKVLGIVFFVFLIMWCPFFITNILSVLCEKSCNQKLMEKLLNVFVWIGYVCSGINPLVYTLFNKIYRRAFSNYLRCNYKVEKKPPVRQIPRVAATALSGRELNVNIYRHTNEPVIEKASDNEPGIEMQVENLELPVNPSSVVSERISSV
Kind of experiment: Human 5-HT2C functional assay in 1321N1 cells (intracellular calcium, FLIPR). Format: cell-based. Details: expressed in transfected cells; host or cells: 1321N1 cells; call rule not given here. The settings on record: 5-HT2c agonist activity, maximum calcium response. The method, boiled down:
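1321N1 cells stably expressing human 5-HT2C were serum-starved overnight and loaded with Fluo-4 AM and 1% probenecid. Compounds (10^−10 to 10^−5 M) were tested alone or with 10^−9 M serotonin, and peak calcium was read by FLIPR. EC50 from four-parameter logistic fit.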
For orientation: A change in cytosolic calcium serves as a functional read-out for many receptors and channels.

Experiment [2] addresses T3, human serotonin 5-HT2c receptor (Homo sapiens, UniProt P28335).
T3 construct: expressed in transfected cells; host or cells: CHO cells (membrane homogenates)
T3 sequence (P28335 33-458): T2 sequence (P28335 33-458)
Kind of experiment: Human 5-HT2C receptor radioligand binding assay (agonist site, [125I]DOI). The settings on record: 5-HT2c agonist site; transfected CHO cell membranes; 0.2 nM [125I](±)DOI. Here is the method:
(i) Human 5-HT2C Receptor Radioligand Binding Assay
Affinity of compounds for the agonist site of the […], receptor in transfected CHO cells was determined in a radioligand binding assay essentially as described by Bryant, H. U., et al., Life Sciences (1996) 59(15), 1259-1268.

Experiment [3] deals with T2, 5HT2C receptors. Briefly: Human 5-HT2C functional high throughput screening assay in CHO-K1 cells (calcium flux). Details: expressed in transfected cells; host or cells: CHO-K1 cells. It is filed as cell-based. The method, boiled down: (§1)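 Serum-starved CHO-K1 cells carrying the receptor; Ca4 dye, 60 min RT. Test compound added after a 10 s baseline, fluorescence followed for 3 min. EC50 from 4-parameter fit; Emax given as % of serotonin effect.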

The target in another experiment is T4, 5HT2B receptors (Homo sapiens, UniProt P41595).
T4 construct: expressed in transfected cells; host or cells: CHO-K1 cells
T4 sequence (P41595 whole entry): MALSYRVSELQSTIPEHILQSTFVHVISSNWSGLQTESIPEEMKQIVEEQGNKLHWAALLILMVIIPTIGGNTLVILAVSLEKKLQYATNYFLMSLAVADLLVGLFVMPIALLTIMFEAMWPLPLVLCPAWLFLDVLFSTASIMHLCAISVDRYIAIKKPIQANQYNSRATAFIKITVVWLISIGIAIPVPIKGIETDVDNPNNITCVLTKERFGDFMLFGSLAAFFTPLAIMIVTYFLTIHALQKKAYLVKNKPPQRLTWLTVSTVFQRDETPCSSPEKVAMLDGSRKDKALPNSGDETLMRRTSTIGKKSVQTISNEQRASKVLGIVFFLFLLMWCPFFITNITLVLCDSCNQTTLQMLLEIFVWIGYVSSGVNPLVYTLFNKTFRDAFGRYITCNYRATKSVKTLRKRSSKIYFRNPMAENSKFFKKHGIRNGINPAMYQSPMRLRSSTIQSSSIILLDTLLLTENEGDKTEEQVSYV
Briefly: Human 5-HT2B functional high throughput screening assay in CHO-K1 cells (calcium flux). It is filed as cell-based. The method, boiled down:
as §1

The mark [4] stands for this setting: HEK293 membranes expressing h-5-HT6 receptor, 1 nM [3H]-LSD, geometrical mean, read-out: Ki (5-HT6 Agonist Site Radioligand Binding).

Like-named read-outs stand apart in the source and are kept apart here.

T1 sequence (P50406 whole entry): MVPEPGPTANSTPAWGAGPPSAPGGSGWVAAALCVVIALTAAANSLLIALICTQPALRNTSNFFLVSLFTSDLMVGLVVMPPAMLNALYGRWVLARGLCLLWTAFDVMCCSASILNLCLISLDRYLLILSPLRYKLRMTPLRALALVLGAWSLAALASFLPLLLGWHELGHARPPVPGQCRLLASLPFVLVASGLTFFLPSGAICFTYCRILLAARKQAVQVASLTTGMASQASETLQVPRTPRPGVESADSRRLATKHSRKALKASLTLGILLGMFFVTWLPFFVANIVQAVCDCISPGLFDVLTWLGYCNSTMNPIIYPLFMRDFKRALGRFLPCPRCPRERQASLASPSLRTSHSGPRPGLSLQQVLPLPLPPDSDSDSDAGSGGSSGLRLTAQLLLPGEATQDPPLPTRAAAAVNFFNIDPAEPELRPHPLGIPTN

As for `O=S(=O)(c1cccc(Cl)c1Cl)N1Cc2ccccc2[C@@H]2CN(Cc3ccccc3)C[C@H]2C1` (relative stereo) [Example 9, Trans-2-benzyl-5-(2,3-dichlorophenylsulfonyl)-1,2,3,3a,4,5,6,10b-octahydrobenzo[c]pyrrolo[3,4-e]azepine], at h-5-HT6 receptor (setting [4]), the Ki (commonly the equilibrium dissociation constant of an inhibitor or competing ligand from its target) came out at 17.1 nM. In addition, the 50% effective concentration (EC50) (usually the midpoint of the concentration-response curve) at 5HT2C receptors [1] is over 10000 nM.

For `O=S(=O)(c1cc(Cl)ccc1Cl)N1Cc2ccccc2[C@@H]2CN(Cc3ccccc3)C[C@H]2C1` (relative stereo) [Example 10, Trans-2-benzyl-5-(2,5-dichlorophenylsulfonyl)-1,2,3,3a,4,5,6,10b-octahydrobenzo[c]pyrrolo[3,4-e]azepine], the Ki at h-5-HT6 receptor (setting [4]) worked out at 174 nM.

Turning to `O=S(=O)(c1ccccc1Br)N1Cc2ccccc2[C@@H]2CN(Cc3ccccc3)C[C@H]2C1` (relative stereo) [Example 11, Trans-2-benzyl-5-(2-bromophenylsulfonyl)-1,2,3,3a,4,5,6,10b-octahydrobenzo[c]pyrrolo[3,4-e]azepine], the inhibition constant (Ki) at h-5-HT6 receptor (setting [4]) is 40.3 nM.

Turning to `O=S(=O)(c1cccc2ccccc12)N1Cc2ccccc2[C@@H]2CN(Cc3ccccc3)C[C@H]2C1` (relative stereo) [Example 13, Trans-2-benzyl-5-(naphthalen-1-ylsulfonyl)-1,2,3,3a,4,5,6,10b-octahydrobenzo[c]pyrrolo[3,4-e]azepine], the Ki at h-5-HT6 receptor (setting [4]) turned out to be 37.5 nM.

In the case of `COc1ccc(OC)c(S(=O)(=O)N2Cc3ccccc3[C@@H]3CN(Cc4ccccc4)C[C@H]3C2)c1` (relative stereo) [Example 15, Trans-2-benzyl-5-(2,5-dimethoxyphenylsulfonyl)-1,2,3,3a,4,5,6,10b-octahydrobenzo[c]pyrrolo[3,4-e]azepine], on h-5-HT6 receptor (setting [4]), the Ki worked out at 490 nM.

Regarding `Cc1ccc(C)c(S(=O)(=O)N2Cc3ccccc3[C@@H]3CN(Cc4ccccc4)C[C@H]3C2)c1` (relative stereo) [Example 17, Trans-2-benzyl-5-(2,5-dimethylphenylsulfonyl)-1,2,3,3a,4,5,6,10b-octahydrobenzo[c]pyrrolo[3,4-e]azepine], the inhibitory constant (Ki) at h-5-HT6 receptor (setting [4]) stood at 55.1 nM.

For the compound `COc1cccc(S(=O)(=O)N2Cc3ccccc3[C@@H]3CN(Cc4ccccc4)C[C@H]3C2)c1` (relative stereo) [Example 18, Trans-2-benzyl-5-(3-methoxyphenylsulfonyl)-1,2,3,3a,4,5,6,10b-octahydrobenzo[c]pyrrolo[3,4-e]azepine], the Ki on h-5-HT6 receptor (setting [4]) is 23.1 nM.

With `N#Cc1ccccc1S(=O)(=O)N1Cc2ccccc2[C@@H]2CN(Cc3ccccc3)C[C@H]2C1` (relative stereo) [Example 21, Trans-2-benzyl-5-(2-cyanophenylsulfonyl)-1,2,3,3a,4,5,6,10b-octahydrobenzo[c]pyrrolo[3,4-e]azepine], on h-5-HT6 receptor (setting [4]), the Ki was 36.1 nM.

With `O=S(=O)(c1cccc(F)c1)N1Cc2ccccc2[C@@H]2CNC[C@H]2C1` (relative stereo) [Example 54, Trans-5-(3-fluorophenylsulfonyl)-1,2,3,3a,4,5,6,10b-octahyrobenzo[c]pyrrolo[3,4-e]azepine], the values for the inhibition constant (Ki) (on h-5-HT6 receptor; in experiment [2]) were 121 nM and 9.1 nM, respectively. On 5HT2C receptors [1], the EC50 worked out at 13.2 nM.

Take `CN1C[C@H]2CN(S(=O)(=O)c3ccccc3)Cc3ccccc3[C@@H]2C1` (relative stereo) [Example 71, Trans-2-methyl-5-(phenylsulfonyl)-1,2,3,3a,4,5,6,10b-octahydrobenzo[e]pyrrolo[3,4-e]azepine]: the Ki at h-5-HT6 receptor amounted to 4.42 nM; in experiment [2], 15 nM. Also, at 5HT2C receptors [1], the concentration for a half-maximal effect (EC50) came out at 14.2 nM.

For the compound `CN1C[C@H]2CN(S(=O)(=O)c3ccccc3)Cc3ccccc3[C@H]2C1` (relative stereo) [Example 72, Cis-2-methyl-5-(phenylsulfonyl)-1,2,3,3a,4,5,6,10b-octahydrobenzo[c]pyrrolo[3,4-e]azepine], the Ki at h-5-HT6 receptor is 71.7 nM; in experiment [2], 65 nM. In addition, the 50% effective concentration (EC50) on 5HT2C receptors [1] came out at 51.9 nM.

With `CN1C[C@H]2CNC(=O)c3cc(OCc4cccc(F)c4)ccc3[C@@H]2C1` (relative stereo) [Example 217, Trans-8-(3-fluorobenzyloxy)-2-methyl-1,2,3,3a,4,5-hexahydrobenzo[c]pyrrolo[3,4-e]azepin-6(10bH)-one], the Ki at h-5-HT6 receptor (setting [4]) worked out at 3180 nM. For the same compound, the half-maximal effective concentration (EC50) on 5HT2C receptors [3] (5-HT2C agonist activity, CHO-K1 cells, calcium flux, read-out: EC50) was 2 nM; on 5HT2B receptors (5-HT2B agonist activity, CHO-K1 cells, calcium flux, read-out: EC50), over 10000 nM. Besides, the Emax (as a rule, the maximal effect, on the per cent scale that the assay sets) at 5HT2C receptors [3] (CHO-K1, 5-HT2C, maximum functional response as percentage relative to the effect of serotonin, read-out: Emax) is 120%; at 5HT2B receptors (5-HT2B, maximum functional response as percentage relative to the effect of serotonin), “inactive”.

In the case of “Trans-2-benzyl-5-(2-dichlorophenylsulfonyl)-1,2,3,3a,4,5,6,10b-octahydrobenzo[c]pyrrolo[3,4-e]azepine [Example 19]”, on h-5-HT6 receptor (setting [4]), the Ki came out at 14.1 nM.
